In PMC7049616 (Acta Pharmaceutica Sinica. B, 2019):

How the values were obtained:
[1] = system: BaF3; experiment: Anti-proliferation assay; type: cell-based; conditions: Mus musculus, BaF3, 72 h
[2] = system: TEL-VEGFR1-BaF3; experiment: Anti-proliferation assay; type: cell-based; conditions: 72 h
[3] = system: TEL-VEGFR3-BaF3; experiment: Anti-proliferation assay; type: cell-based; conditions: 72 h
[4] = system: P210-BaF3; experiment: Anti-proliferation assay; type: cell-based; conditions: 72 h
[5] = system: TEL-BMX-BaF3; experiment: Anti-proliferation assay; type: cell-based; conditions: 72 h
[6] = system: TEL-EPHA1-BaF3; experiment: Anti-proliferation assay; type: cell-based; conditions: 72 h
[7] = system: TEL-EPHA2-BaF3; experiment: Anti-proliferation assay; type: cell-based; conditions: 72 h
[8] = system: TEL-CSF1R-BaF3; experiment: Anti-proliferation assay; type: cell-based; conditions: 72 h
[9] = system: TEL-FGFR2-BaF3; experiment: Anti-proliferation assay; type: cell-based; conditions: 72 h
[10] = system: TEL-FGFR3-BaF3; experiment: Anti-proliferation assay; type: cell-based; conditions: 72 h
[11] = system: TEL-FGFR4-BaF3; experiment: Anti-proliferation assay; type: cell-based; conditions: 72 h
[12] = Pharmacokinetics study; type: in vivo, Sprague–Dawley rats; conditions: male, Sprague-Dawley, rat, plasma
[13] = Acute toxicity study, single oral dose, 7 days observation; type: in vivo, ICR mice; conditions: for toxicity observation in acute toxicity study: ICR mice; for Number of deaths (death/total): female ICR mice, 7 days
[14] = system: HUVEC cells; conditions: after 12 h
[15] = system: TEL-PDGFRa-BaF3; experiment: cells; conditions: 72 h
[16] = system: TEL-PDGFRb-BaF3; experiment: cells; conditions: 72 h
[17] = system: TEL-cKIT-BaF3; experiment: cells; conditions: 72 h
[18] = system: TEL-RET-BaF3; experiment: cells; conditions: 72 h
[19] = system: TEL-FLT3-BaF3; experiment: cells; conditions: 72 h
[20] = system: TEL-FGFR1-BaF3; experiment: cells; conditions: 72 h

CCN(CC)CCNC(=O)c1c(C)[nH]c(/C=C2\C(=O)Nc3ccc(F)cc32)c1C [Sunitinib]
GI50 [1]: 2560 nM
GI50 [2]: 350 nM
GI50 [3]: 570 nM
GI50 [4]: 1460 nM
GI50 [5]: 3020 nM
GI50 [6]: 3210 nM
GI50 [7]: 1270 nM
GI50 [8]: 11 nM
GI50 [9]: 4 nM
GI50 [10]: 370 nM
GI50 [11]: 2820 nM
AUC(0-inf) ([12]; iv, 1 mg/kg): 145 ± 39.6 ng·h/mL
AUC(0-t) ([12]; iv, 1 mg/kg): 143 ± 40.3 ng·h/mL
Cmax ([12]; iv, 1 mg/kg): 236 ± 66.8 ng/mL
MRT last ([12]; iv, 1 mg/kg): 0.98 ± 0.04 h
Tmax ([12]; iv, 1 mg/kg): 0.33 h
half-life ([12]; iv, 1 mg/kg): 1.05 ± 0.34 h
bioavailability ([12]; oral, 10 mg/kg): 75.7%
AUC(0-inf) ([12]; po, 10 mg/kg): 1100 ± 96.7 ng·h/mL
AUC(0-t) ([12]; po, 10 mg/kg): 927 ± 108 ng·h/mL
Cmax ([12]; po, 10 mg/kg): 175 ± 21.7 ng/mL
MRT last ([12]; po, 10 mg/kg): 7.63 ± 0.3 h
Tmax ([12]; po, 10 mg/kg): 1.25 ± 1.06 h
half-life ([12]; po, 10 mg/kg): 1.38 ± 0.46 h
toxicity observation in acute toxicity study ([13]; single dose 500 mg/kg, recovered starting from day 4): apparent body weight loss
toxicity observation in acute toxicity study ([13]; single dose 1000 mg/kg): unrecovered body weight loss
toxicity observation in acute toxicity study ([13]; single dose 2000 mg/kg): mice death on day 3
Number of deaths (death/total) ([13]; single oral dose 125 mg/kg): ♀: 0/2
Number of deaths (death/total) ([13]; single oral dose 250 mg/kg): ♀: 0/2
Number of deaths (death/total) ([13]; single oral dose 500 mg/kg): ♀: 0/2
Number of deaths (death/total) ([13]; single oral dose 1000 mg/kg): ♀: 0/2
Number of deaths (death/total) ([13]; single oral dose 2000 mg/kg): ♀: 2/2
HUVEC migration in wound-healing assay [14]: less migrated HUVEC cells
GI50 [15]: 1 nM
GI50 [16]: < 1 nM
GI50 [17]: 81 nM
GI50 [18]: 110 nM
GI50 [19]: 32 nM
GI50 [20]: 1680 nM
